# Source: patent US11774460B2, “Diagnostic or predictor of relapsing remitting multiple sclerosis” (Dignity Health, priority 2016, dated 2023)
# Test system: Factor VIII activity
# Assay: Factor VIII activity in blood of multiple sclerosis patients under treatment
# Assay type: in vivo, human
# Details: MS patient with elevated Factor VIII activity during exacerbation
# From the text: In various embodiments, disclosed herein is a method of detecting or predicting a relapse of multiple sclerosis in an individual afflicted with a form of multiple sclerosis, comprising: (a) providing a blood sample of the individual; (b) testing the blood sample to determine a protein activity or protein level, wherein the protein is Factor VIII, von Willebrand factor, or Protein C; and (c) detecting a relapse of multiple sclerosis in the individual if the protein activity or protein level is elevated compared to the protein activity or protein level in an individual not afflicted with the form of multiple sclerosis or the patient's own lowest baseline value as a form of a control. In some of these embodiments, the form of multiple sclerosis is relapsing-remitting multiple sclerosis with or without secondary progression. In some embodiments, the multiple sclerosis in the individual is in remission. In some embodiments, the blood sample test to determine the protein activity or protein level is performed simultaneously with other blood tests, such as, partial thromboplastin time (PTT) test, International Normalized Ratio (INR) test, and erythrocyte sedimentation rate (ESR) test. In some of these embodiments, the blood sample tests are performed at least once per month during the treatment period and/or monitoring period of multiple sclerosis. […]
substance,measurement,value
TYSABRI: disease-modifying therapy for multiple sclerosis named only by trade name,Factor VIII activity after treatment,returned to normal
